Data set [1] is described as follows: Lipophilicity, shake-flask n-octanol/PBS. The following applies: n-octanol/phosphate-buffered saline, pH 7.4. The format is physicochemical.
Data set [2] can be described thus: Tumor uptake and tissue distribution in mice bearing SJSA-1 xenografts. To be noted: athymic, mouse, iv, 166.5 kBq, total radioactivity. The data set is classed as in vivo, athymic mice.
Data set [3] can be described thus: In vivo metabolic stability. To be noted: athymic mice without tumors, i.v., plasma 4 h post-injection; RP-HPLC; n = 2/time point.
For data set [4], the system named is SJSA-1 osteosarcoma cell line (MDM2-amplified, wild-type p53). The format is cell-based, human. To be noted: SJSA-1 cells, 50 μM VIP116, 2 h incubation.
Data set [5] concerns SJSA-1 human osteosarcoma xenografts. The experiment in a line: Tumor uptake and tissue distribution in mice bearing SJSA-1 xenografts. The format is in vivo, athymic mice.
For another data set, the target named is MDM2. The following applies: read-out: binding affinity towards MDM2 (Kd); ref 22 (Thean et al.); cited from earlier work.

The values that follow come from publication PMC9940446 (Bioorganic & medicinal chemistry letters, 2022).

The term logD denotes the decadic logarithm of the distribution of all forms, ionised or not, between an organic phase and buffer at a given pH. Low readings indicate a more hydrophilic compound, high ones a more lipophilic compound. For orientation: tissue uptake means the percentage of the injected dose found per gram of tissue. As usually defined, the Kd is the concentration at which binding is half-saturated.

Consider `CC(=O)N[C@@H](CCCCNC(=O)c1cccc(I)c1)C(=O)NCCCCCC(=O)N[C@H](C(=O)N[C@@H](CO)C(=O)N[C@@H](Cc1ccccc1)C(=O)N[C@]1(C)CCCCCCC=CCCC[C@@](C)(C(=O)N[C@@H](CCC(=O)O)C(=O)N[C@@H](CC(N)=O)C(=O)N[C@@H](Cc2ccccc2)C(N)=O)NC(=O)[C@H](CC(C)C)NC(=O)[C@H](CC(C)C)NC(=O)[C@H](C)NC(=O)[C@H](Cc2c[nH]c3ccccc23)NC(=O)[C@H](Cc2ccc(O)cc2)NC(=O)[C@H](CCC(=O)O)NC1=O)[C@@H](C)O` [[^125I]SIB-VIP116] [listing 1 of 2 here], for which, in data set [1], the logD was determined as 1.45 ± 0.05. Further, the tissue uptake at 0.5 h in data set [2] (bladder) was 0.61 ± 0.21 %ID/g; in data set [2] (bone), 0.38 ± 0.19 %ID/g; in data set [2] (brain) it was 0.24 ± 0.13 %ID/g; in data set [2] (heart), 2.52 ± 0.49 %ID/g; in data set [2] (kidneys), 3.06 ± 1.82 %ID/g; in data set [2] (large intestine), 0.06 ± 0.06 %ID/g. In addition, the tissue uptake at 0.5 h amounted to 13.5 ± 6.18 %ID/g in data set [2] (liver); 4.27 ± 1.06 %ID/g in data set [2] (lungs); 0.16 ± 0.06 %ID/g in data set [2] (muscle); 0.57 ± 0.17 %ID/g in data set [2] (skin); 0.43 ± 0.09 %ID/g in data set [2] (small intestine); 1.29 ± 0.61 %ID/g in data set [2] (spleen). Moreover, the tissue uptake at 0.5 h in data set [2] (stomach) is 0.34 ± 0.09 %ID/g; in data set [2] (thyroid) it was 0.89 ± 0.17 %ID/g; in data set [2] (tumor), 1.8 ± 0.75 %ID/g. Further, the tissue uptake at 2 h in data set [2] (bladder) worked out at 0.58 ± 0.34 %ID/g; in data set [2] (blood) it was 6.84 ± 1.92 %ID/g; in data set [2] (bone) it was 0.33 ± 0.23 %ID/g; in data set [2] (brain), 0.25 ± 0.08 %ID/g; in data set [2] (heart), 2.44 ± 0.49 %ID/g; in data set [2] (kidneys) it was 2.54 ± 0.5 %ID/g. For the same compound, the tissue uptake at 2 h in data set [2] (large intestine) is 0.24 ± 0.2 %ID/g; in data set [2] (liver), 18.4 ± 1.45 %ID/g; in data set [2] (lungs) it was 2.72 ± 1.16 %ID/g; in data set [2] (muscle), 0.24 ± 0.07 %ID/g; in data set [2] (skin) it was 0.88 ± 0.18 %ID/g; in data set [2] (small intestine), 2.17 ± 0.99 %ID/g. Besides, the tissue uptake at 2 h in data set [2] (spleen) worked out at 1.8 ± 0.65 %ID/g; in data set [2] (stomach), 0.53 ± 0.17 %ID/g; in data set [2] (thyroid) it was 1.14 ± 0.43 %ID/g. Besides, the tissue uptake at 6 h in data set [2] (bladder) is 0.95 ± 0.78 %ID/g; in data set [2] (blood), 5.12 ± 0.9 %ID/g; in data set [2] (bone), 0.29 ± 0.2 %ID/g; in data set [2] (brain), 0.2 ± 0.06 %ID/g; in data set [2] (heart) it was 2.14 ± 0.38 %ID/g; in data set [2] (kidneys) it was 2.5 ± 0.48 %ID/g. Further, the tissue uptake at 6 h amounted to 4.44 ± 1.9 %ID/g in data set [2] (large intestine); 11.4 ± 4.46 %ID/g in data set [2] (liver); 2.49 ± 1.17 %ID/g in data set [2] (lungs); 0.25 ± 0.11 %ID/g in data set [2] (muscle); 1.22 ± 0.47 %ID/g in data set [2] (skin); 3.84 ± 1.29 %ID/g in data set [2] (small intestine). The tissue uptake at 6 h stood at 1.99 ± 0.44 %ID/g in data set [2] (spleen), 1.9 ± 1.15 %ID/g in data set [2] (stomach), 1.19 ± 0.36 %ID/g in data set [2] (thyroid) and 2.11 ± 0.29 %ID/g in data set [2] (tumor). For the same compound, the tissue uptake at 24 h was 0.29 ± 0.09 %ID/g in data set [2] (bladder); 0.62 ± 0.2 %ID/g in data set [2] (blood); 0.16 ± 0.04 %ID/g in data set [2] (bone); 0.02 ± 0.01 %ID/g in data set [2] (brain); 0.37 ± 0.08 %ID/g in data set [2] (heart); 0.63 ± 0.12 %ID/g in data set [2] (kidneys). Also, the tissue uptake at 24 h was 1.87 ± 1.29 %ID/g in data set [2] (large intestine); 4.72 ± 2.84 %ID/g in data set [2] (liver); 0.33 ± 0.19 %ID/g in data set [2] (lungs); 0.16 ± 0.09 %ID/g in data set [2] (muscle); 0.52 ± 0.13 %ID/g in data set [2] (skin); 0.86 ± 0.35 %ID/g in data set [2] (small intestine). The tissue uptake at 24 h in data set [2] (spleen) came out at 0.58 ± 0.24 %ID/g; in data set [2] (stomach), 0.84 ± 0.43 %ID/g; in data set [2] (thyroid), 0.27 ± 0.14 %ID/g; in data set [2] (tumor), 0.36 ± 0.12 %ID/g.

As for `CC(=O)N[C@@H](CCCCNC(=O)c1cccc(I)c1)C(=O)NCCCCCC(=O)N[C@H](C(=O)N[C@@H](CO)C(=O)N[C@@H](Cc1ccccc1)C(=O)N[C@]1(C)CCCCCCC=CCCC[C@@](C)(C(=O)N[C@@H](CCC(=O)O)C(=O)N[C@@H](CC(N)=O)C(=O)N[C@@H](Cc2ccccc2)C(N)=O)NC(=O)[C@H](CC(C)C)NC(=O)[C@H](CC(C)C)NC(=O)[C@H](C)NC(=O)[C@H](Cc2c[nH]c3ccccc23)NC(=O)[C@H](Cc2ccc(O)cc2)NC(=O)[C@H](CCC(=O)O)NC1=O)[C@@H](C)O` [[*I]SIB-VIP116] [listing 1 of 2 here], in data set [2] (blood), the tissue uptake at 0.5 h was found to be 8.33 ± 1.18 %ID/g. For the same compound, in data set [2] (tumor), the tissue uptake at 2 h amounted to 2.19 ± 0.56 %ID/g.

With `CC(=O)N[C@@H](CCCCNC(=O)c1cccc(I)c1)C(=O)NCCCCCC(=O)N[C@H](C(=O)N[C@@H](CO)C(=O)N[C@@H](Cc1ccccc1)C(=O)N[C@]1(C)CCCCCCC=CCCC[C@@](C)(C(=O)N[C@@H](CCC(=O)O)C(=O)N[C@@H](CC(N)=O)C(=O)N[C@@H](Cc2ccccc2)C(N)=O)NC(=O)[C@H](CC(C)C)NC(=O)[C@H](CC(C)C)NC(=O)[C@H](C)NC(=O)[C@H](Cc2c[nH]c3ccccc23)NC(=O)[C@H](Cc2ccc(O)cc2)NC(=O)[C@H](CCC(=O)O)NC1=O)[C@@H](C)O` [[*I]SIB-VIP116] [listing 2 of 2 here], in data set [3], the “% of radioactivity in plasma as intact labeled peptide” value is reported as “about 80%”.

Regarding `CC(=O)N[C@@H](CCCCNC(=O)c1cccc(I)c1)C(=O)NCCCCCC(=O)N[C@H](C(=O)N[C@@H](CO)C(=O)N[C@@H](Cc1ccccc1)C(=O)N[C@]1(C)CCCCCCC=CCCC[C@@](C)(C(=O)N[C@@H](CCC(=O)O)C(=O)N[C@@H](CC(N)=O)C(=O)N[C@@H](Cc2ccccc2)C(N)=O)NC(=O)[C@H](CC(C)C)NC(=O)[C@H](CC(C)C)NC(=O)[C@H](C)NC(=O)[C@H](Cc2c[nH]c3ccccc23)NC(=O)[C@H](Cc2ccc(O)cc2)NC(=O)[C@H](CCC(=O)O)NC1=O)[C@@H](C)O` [[^125I]SIB-VIP116] [listing 2 of 2 here], the “blocking of cell uptake” value in data set [4] was greater than 85%. The Blood radioactivity in data set [5] (30 min after i.v. injection, n = 5) was determined as 8.33 ± 1.18 %ID/g. Also, the “radioactivity found in the urine” value in data set [5] (2 h after i.v. injection (data not shown)) is no more than 0.93 % ID. The “Tumor uptake (SJSA-1 xenograft)” value in data set [5] (2 h after i.v. injection, n = 5) was determined as 2.19 ± 0.56 %ID/g.

As for `CC(=O)N[C@@H](CCCCN)C(=O)NCCCCCC(=O)N[C@H](C(=O)N[C@@H](CO)C(=O)N[C@@H](Cc1ccccc1)C(=O)N[C@]1(C)CCCCCCC=CCCC[C@@](C)(C(=O)N[C@@H](CCC(=O)O)C(=O)N[C@@H](CC(N)=O)C(=O)N[C@@H](Cc2ccccc2)C(N)=O)NC(=O)[C@H](CC(C)C)NC(=O)[C@H](CC(C)C)NC(=O)[C@H](C)NC(=O)[C@H](Cc2c[nH]c3ccccc23)NC(=O)[C@H](Cc2ccc(O)cc2)NC(=O)[C@H](CCC(=O)O)NC1=O)[C@@H](C)O` [VIP116], the Kd at MDM2 is 15.1 ± 1.7 nM.
